# Measurements published in PMC9016025, “Translational imaging of the fibroblast activation protein (FAP) using the new ligand [^68Ga]Ga-OncoFAP-DOTAGA” (European Journal of Nuclear Medicine and Molecular Imaging, 2021).
# Tested on: subcutaneous HT1080 (FAP−) and HT1080-hFAP (FAP+) tumors
# Experiment: Gamma counting biodistribution in tumor-bearing mice
# Type: in vivo, mouse
# Procedure: For tumor-xenograft models, female NMRI nu/nu mice (Janvier, France), 8–9 weeks old, were housed at a constant temperature (22 °C) and relative humidity (40–55%) under a regular light/dark schedule. Food and water were available ad libitum.
# Tumor cells (10^6 cells in 50 μL saline) were implanted subcutaneously in the shoulders of NMRI mice with HT1080 wildtype (FAP^−) in one shoulder and with stably transfected human FAP-expressing HT1080 cells (FAP^+) in the contralateral shoulder. Cells were kindly provided by U. Haberkorn, University of Heidelberg. At day 11 after implantation, mice received whole-body PET/MRI (1 T Mediso nanoScan) imaging with list mode PET for 60 min and additional non-contrast-enhanced anatomic, coronal T1-weighted MRI, followed by late static PET/MRI imaging 180 min p.i. Either ^68Ga-OncoFAP or ^68Ga-FAPI-46 (n = 6 each) was injected into the tail vein with a syringe pump at 1000 μL/min in a volume of 100 μL 30 s after the start of PET. At the next day (day 12 after implantation), the same mice were injected with the respective other FAP-tracer and received identical dynamic PET/MRI for 60 min. […] All involved measuring hardware (dose calibrator ISOMED 2010, automatic γ-counter PERKIN ELMER WALAC 2480, Twilite coincidence detector Swisstrace, PET/MRI) were cross-calibrated for ^68Ga. Overall, 3 scans were rejected, because of extravasation (day 11 OncoFAP), inability of i.v. access (day 12 FAPI-46), and insufficient radioactivity (day 12 FAPI-46), respectively. The resulting injected amounts of radioactivity for the remaining 11 ^68Ga-OncoFAP scans and 10 ^68Ga-FAPI-46 scans were 19.2 ± 4.4 MBq and 18.2 ± 4.8 MBq, respectively.
smiles,measurement,setting,value
"CN(CCCN1CCN(C(=O)CN2CCN(CC(=O)[O-])CCN(CC(=O)[O-])CCN(CC(=O)[O-])CC2)CC1)c1ccc2nccc(C(=O)NCC(=O)N3CC(F)(F)C[C@H]3C#N)c2c1.[68Ga+3] [^68Ga-FAPI-46, [^68Ga]Ga-FAPI-46]",organ-to-blood ratio brain,gamma counting 1 h p.i.,0.06 ± 0.01
same,organ-to-blood ratio heart,gamma counting 1 h p.i.,0.36 ± 0.04
same,organ-to-blood ratio kidney,gamma counting 1 h p.i.,11.58 ± 8.84
same,organ-to-blood ratio liver,gamma counting 1 h p.i.,0.70 ± 0.23
same,organ-to-blood ratio lung,gamma counting 1 h p.i.,1.84 ± 1.04
same,organ-to-blood ratio muscle,gamma counting 1 h p.i.,0.31 ± 0.11
same,organ-to-blood ratio spleen,gamma counting 1 h p.i.,0.43 ± 0.06
same,organ-to-blood ratio tumor FAP+ (tumor-to-blood ratio),gamma counting 1 h p.i.,1.98 ± 0.92
same,organ-to-blood ratio tumor FAP-,gamma counting 1 h p.i.,0.55 ± 0.08
same,uptake blood,gamma counting 1 h p.i.,0.69 ± 0.15 % ID/g
same,uptake heart,gamma counting 1 h p.i.,0.25 ± 0.07 % ID/g
same,uptake kidney,gamma counting 1 h p.i.,8.58 ± 7.52 % ID/g
same,uptake liver,gamma counting 1 h p.i.,0.46 ± 0.06 % ID/g
same,uptake lung,gamma counting 1 h p.i.,1.17 ± 0.43 % ID/g
same,uptake muscle,gamma counting 1 h p.i.,0.21 ± 0.07 % ID/g
same,uptake plasma,gamma counting 1 h p.i.,1.02 ± 0.30 % ID/g
same,uptake spleen,gamma counting 1 h p.i.,0.29 ± 0.05 % ID/g
same,uptake tumor FAP+,gamma counting 1 h p.i.,1.28 ± 0.40 % ID/g
same,uptake tumor FAP-,gamma counting 1 h p.i.,0.38 ± 0.12 % ID/g
same,uptake urine,gamma counting 1 h p.i.,525.55 ± 279.13 % ID/g
same,organ-to-blood ratio brain,gamma counting 3 h p.i.,0.15 ± 0.10
same,organ-to-blood ratio heart,gamma counting 3 h p.i.,0.51 ± 0.23
same,organ-to-blood ratio kidney,gamma counting 3 h p.i.,10.39 ± 5.81
same,organ-to-blood ratio liver,gamma counting 3 h p.i.,1.73 ± 1.28
same,organ-to-blood ratio lung,gamma counting 3 h p.i.,2.27 ± 1.98
same,organ-to-blood ratio muscle,gamma counting 3 h p.i.,0.38 ± 0.26
same,organ-to-blood ratio spleen,gamma counting 3 h p.i.,0.78 ± 0.47
same,organ-to-blood ratio tumor FAP+ (tumor-to-blood ratio),gamma counting 3 h p.i.,28.62 ± 17.69
same,organ-to-blood ratio tumor FAP-,gamma counting 3 h p.i.,1.15 ± 0.67
same,uptake blood,gamma counting 3 h p.i.,0.22 ± 0.31 % ID/g
same,uptake brain,gamma counting 3 h p.i.,0.01 ± 0.00 % ID/g
same,uptake heart,gamma counting 3 h p.i.,0.05 ± 0.02 % ID/g
same,uptake kidney,gamma counting 3 h p.i.,0.98 ± 0.60 % ID/g
same,uptake liver,gamma counting 3 h p.i.,0.14 ± 0.03 % ID/g
same,uptake lung,gamma counting 3 h p.i.,0.17 ± 0.06 % ID/g
same,uptake muscle,gamma counting 3 h p.i.,0.04 ± 0.02 % ID/g
same,uptake plasma,gamma counting 3 h p.i.,0.38 ± 0.53 % ID/g
same,uptake spleen,gamma counting 3 h p.i.,0.07 ± 0.02 % ID/g
same,uptake tumor FAP+,gamma counting 3 h p.i.,2.64 ± 0.60 % ID/g
same,uptake tumor FAP-,gamma counting 3 h p.i.,0.11 ± 0.03 % ID/g
